Our source for the inhibition values is patent US9834520B2, “Heterocyclic compound” (TAKEDA PHARMACEUTICAL COMPANY LIMITED, priority 2013, dated 2017).

Read-outs that look alike come from different tables or passages of the source.

Assay [1] concerns Th17 cells. In words: Mouse Th17 cell differentiation test (IL-17A by ELISA). The format is cell-based. The note with it: 96 h, 10 μM of test compound, IL-17A in culture supernatant, 4 days, read-out: inhibitory rate(%). As to the method: Mouse Th17 Cell Differentiation Test
CD4 positive naive T cells were collected from the spleen cells of Balb/c mice (female, 8-11w) using CD4+CD62L+ T Cell Isolation kit II (Miltenyi Biotec). The CD4 positive naive T cells was plated in a 96 well plate (3×10^5 cells/well), and stimulated (37° C. for culture) with anti-mouse CD3ε antibody (10 μg/mL, solid phase) and anti-CD28 antibody (5 μg/mL) for 4 days in the presence of anti-IFN-γ antibody, anti-IL-4 antibody, anti-IL-2 antibody, IL-6, TGF-β and IL-23 to differentiate into Th17 cells. The compound was dissolved in DMSO and then added thereto. The cells were cultured under these conditions for 4 days, and differentiation of the Th17 cells was evaluated by using the concentration of IL-17A, which was measured by ELISA, in the culture supernatant obtained by centrifugation.
On the technique in general: In an ELISA, binding on a coated surface is turned into a signal by an enzyme label.

Assay [2] concerns human PBMC. In words: IL17 production test in human PBMC. The format is cell-based. The note with it: 72 h, 10 μM of test compound, IL-17A in culture supernatant, 3 days, read-out: inhibitory rate (%). As to the method: IL17 Production Test in Human PBMC
Peripheral blood mononuclear cells (PBMC) collected from human peripheral blood by a density gradient centrifugation method were stimulated by Dynabeads (registered trade mark; anti-CD3/CD28 antibody) and cultured at 37° C. for 3 days. The test compound was dissolved in DMSO and then added thereto. After culture for 3 days under such conditions, the concentration of IL-17A in the culture supernatant obtained by centrifugation was measured by ELISA to evaluate the effect of the compound on IL-17 production.

The target of assay [3] is T1, RORγt (Homo sapiens, UniProt P51449).
T1 sequence (P51449 1-497 isoform P51449-2): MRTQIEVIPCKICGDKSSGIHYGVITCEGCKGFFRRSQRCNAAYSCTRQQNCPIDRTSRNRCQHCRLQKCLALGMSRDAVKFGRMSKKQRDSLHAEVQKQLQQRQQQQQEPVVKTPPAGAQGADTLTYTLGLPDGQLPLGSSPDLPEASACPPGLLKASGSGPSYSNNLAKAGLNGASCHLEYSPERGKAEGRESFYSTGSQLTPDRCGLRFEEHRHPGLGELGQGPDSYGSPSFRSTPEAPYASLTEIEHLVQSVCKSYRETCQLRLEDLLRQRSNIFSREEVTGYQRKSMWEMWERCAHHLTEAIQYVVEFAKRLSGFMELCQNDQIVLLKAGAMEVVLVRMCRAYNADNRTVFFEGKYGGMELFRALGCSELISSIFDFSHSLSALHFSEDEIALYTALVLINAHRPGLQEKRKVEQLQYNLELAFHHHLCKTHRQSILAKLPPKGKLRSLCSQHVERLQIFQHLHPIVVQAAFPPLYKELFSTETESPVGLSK
Description: Cofactor recruitment test (Alpha Screen, biotinylated SRC-1 peptide). As to conditions: test compound 1 μM; read-out: signal value inhibitory rate (%). The assay is classed as biochemical. How it is done: Cofactor Recruitment Test
Cofactor recruitment test was performed by Alpha Screen (Histidine Detection Kit, PerkinElmer) method. First, a test compound diluted with an assay buffer (50 mM Tris-HCl (pH 7.5), 50 mM KCl, 1 mM DTT, 0.1% BSA) was added to a 384 well plate by 5 μL each. […] The mixture was stood in a dark place for 1 hr, and the signal value was measured by Envision (PerkinElmer).

For assay [4], the target named is T1, RORγt. Description: Jurkat reporter test (IL-17 ROR response element luciferase). The format is cell-based. Also on record: expressed in transfected cells; host or cells: Jurkat cells. The note with it: test compound 3 μM, Jurkat cells, read-out: luminescence level inhibitory rate (%). As to the method: The Jurkat cells used for the reporter test were cultured in a culture medium (RPMI (Invitrogen), 10% FCS (AusGeneX), 100 U/mL penicillin, 100 μg/mL streptomycin). On the day of the test, 4×10^7 cells were recovered by a centrifugal operation (1000 rpm, 5 min.) and suspended in PBS (phosphate buffered saline) (Invitrogen). Thereafter, the cells were recovered again by a centrifugal operation, and suspended in 2 mL of R buffer (NEON transfection kit, Invitrogen). […] Gene transfer was performed by Electroporation apparatus (NEON, Invitrogen) under the conditions of pulse voltage 1350 V, interval 10 milliseconds, number of times 3. The cells after gene transfer were suspended in 40 mL of a reaction medium (RPMI, 10% Lipid reduced FCS (HyClone), 10 mM HEPES (pH 7.5), 100 U/mL penicillin, 100 μg/mL streptomycin, 5 μM lovastatin), and plated in a 96 well plate by 90 μL each. A test compound diluted with the reaction medium was added by 10 μL each, and the cells were cultured overnight in an incubator. Bright-Glo (Promega) was added by 100 μL each, and the mixture was stirred at room temperature for 10 min, and the luminescence level was measured by Envision (PerkinElmer).

The target of assay [5] is T1, RORγt. Description: RORγt binding test (TR-FRET, fluorescent-labeled cholesterol). As to conditions: binding inhibitory rate of fluorescent-labeled cholesterol to RORγt at test compound 1 μM. How it is done: The binding activity of the test compound to RORγt was measured by a time resolved fluorescence resonance energy transfer method (TR-FRET) utilizing histidine-tagged RORγt, fluorescent-labeled cholesterol (BODIPY-cholesterol, AVIVA) and terbium-labeled anti-histidine tag antibody (Invitrogen). First, a test compound diluted with an assay buffer (20 mM Tris-HCl (pH 7.5), 100 mM NaCl, 1 mM DTT, 0.1% BSA) was added to a 384 well plate by 3 μL each. Then, RORγt diluted with an assay buffer to 240 nM was added by 3 μL each, after which fluorescent-labeled cholesterol diluted with the assay buffer to 12 μM was added by 3 μL each, and the mixture was stood at room temperature for 20 min. Thereafter, a terbium-labeled anti-histidine tag antibody diluted with the assay buffer to 8 nM was added by 3 μL each. The mixture was stood at room temperature for 20 min, and fluorescence intensity (excitation wavelength 320 nm, fluorescence wavelength 520 nm, delay time 100 microseconds) was measured by Envision (PerkinElmer).
(In general: TR-FRET usually uses a lanthanide donor and a delayed reading to cut background.)

For the molecule `CC(CC(=O)Nc1ccc(C#N)c(Cl)c1)CC(=O)Nc1ccc2c(c1)c(=O)n(CC1CC1)c(=O)n2CC1CC1` (centres unmarked) [Example 2, N-(1,3-bis(cyclopropylmethyl)-2,4-dioxo-1,2,3,4-tetrahydroquinazolin-6-yl)-N′-(3-chloro-4-cyanophenyl)-3-methylpentanediamide], the inhibition at 10 µM in assay [1] was determined as 97%; in assay [2], 96%.
On to `CCn1c(=O)c2cc(C(=O)NCC(C)CC(=O)Nc3ccc(C#N)c(Cl)c3)ccc2n(CC)c1=O` (centres unmarked) [Example 4, N-(4-((3-chloro-4-cyanophenyl)amino)-2-methyl-4-oxobutyl)-1,3-diethyl-2,4-dioxo-1,2,3,4-tetrahydroquinazoline-6-carboxamide], for which the inhibition at 1 µM in assay [3] turned out to be 105%; in assay [5], 96.7%. Besides, the inhibition at 3 µM in assay [4] (Jurkat) turned out to be 116%. In assay [2], the inhibition at 10 µM came to 97%.
As for `CCC1Oc2cc(NC(=O)CC(C)CC(=O)Nc3ccc(C#N)c(Cl)c3)ccc2N(CC)C1=O` (centres unmarked) [Example 7, N-(3-chloro-4-cyanophenyl)-N′-(2,4-diethyl-3-oxo-3,4-dihydro-2H-1,4-benzoxazin-7-yl)-3-methylpentanediamide], in assay [2], the inhibition at 10 µM came out at 100%.
Turning to `CCN1C(=O)C(c2ccccc2)Oc2cc(NC(=O)CC(C)CC(=O)Nc3ccc(C#N)c(Cl)c3)ccc21` (centres unmarked) [Example 12, N-(3-chloro-4-cyanophenyl)-N′-(4-ethyl-3-oxo-2-phenyl-3,4-dihydro-2H-1,4-benzoxazin-7-yl)-3-methylpentanediamide], the inhibition at 1 µM in assay [3] was 104%; in assay [5], 98.3%. Further, the inhibition at 3 µM in assay [4] (Jurkat) was 120%. Also, the inhibition at 10 µM in assay [1] and in assay [2] was 97% in each case.
Consider `CCn1c(=O)c2cc(C(=O)NCC(CC(=O)Nc3ccc(C#N)c(Cl)c3)C(C)C)ccc2n(CC)c1=O` (centres unmarked) [Example 17, N-(4-((3-chloro-4-cyanophenyl)amino)-2-isopropyl-4-oxobutyl)-1,3-diethyl-2,4-dioxo-1,2,3,4-tetrahydroquinazoline-6-carboxamide], for which the inhibition at 1 µM was found to be 103% in assay [3] and 101% in assay [5]. In assay [4] (Jurkat), the inhibition at 3 µM is 121%. Besides, in assay [2], the inhibition at 10 µM was 84%.
For the molecule `CCn1c(=O)c2cc(NC(=O)CC(C)CNC(=O)c3ccc(C#N)c(Cl)c3)ccc2n(CC)c1=O` (centres unmarked) [Example 23, 3-chloro-4-cyano-N-(4-((1,3-diethyl-2,4-dioxo-1,2,3,4-tetrahydroquinazolin-6-yl)amino)-2-methyl-4-oxobutyl)benzamide], the values for the inhibition at 1 µM in assay [3] and in assay [5] were 104% and 97.3%, respectively. The inhibition at 3 µM in assay [4] was determined as 115%. Besides, the inhibition at 10 µM in assay [1] worked out at 94%.
As to `CC(CC(=O)Nc1ccc(C#N)c(Cl)c1)CC(=O)Nc1cc2c(=O)n(CC3CC3)c(=O)n(CC3CC3)c2cn1` (centres unmarked) [Example 113, N-(1,3-bis(cyclopropylmethyl)-2,4-dioxo-1,2,3,4-tetrahydropyrido[3,4-d]pyrimidin-6-yl)-N′-(3-chloro-4-cyanophenyl)-3-methylpentanediamide], the inhibition at 1 µM is 102% in assay [3] and 103% in assay [5]. The inhibition at 3 µM in assay [4] (Jurkat) worked out at 96.5%.
Regarding `CCn1c(=O)c2cc(NC(=O)CC(C)CC(=O)Nc3ccc(C#N)c(Cl)c3)ccc2n(C[Si](C)(C)C)c1=O` (centres unmarked) [Example 126, N-(3-chloro-4-cyanophenyl)-N′-(3-ethyl-2,4-dioxo-1-((trimethylsilyl)methyl)-1,2,3,4-tetrahydroquinazolin-6-yl)-3-methylpentanediamide], the inhibition at 1 µM in assay [3] turned out to be 100%; in assay [5], 103%. For the same molecule, the inhibition at 3 µM in assay [4] (Jurkat) worked out at 102%.
The matching figures for `CCn1c(=O)c2cc(NC(=O)CC(C)CC(=O)Nc3ccc(C#N)c(Cl)c3)cc(F)c2n(CC)c1=O` (centres unmarked) [Example 129, N-(3-chloro-4-cyanophenyl)-N′-(1,3-diethyl-8-fluoro-2,4-dioxo-1,2,3,4-tetrahydroquinazolin-6-yl)-3-methylpentanediamide]: 100%, 100% and 102%.
The corresponding values for `CCn1c(=O)c2cc(NC(=O)CC(C)CC(=O)Nc3ccc(C#N)c(Cl)c3)c(F)cc2n(CC)c1=O` (centres unmarked) [Example 130, N-(3-chloro-4-cyanophenyl)-N′-(1,3-diethyl-7-fluoro-2,4-dioxo-1,2,3,4-tetrahydroquinazolin-6-yl)-3-methylpentanediamide] are 102%, 101% and 101%.
The corresponding values for `CCn1c(=O)n(CC2CC2)c(=O)c2cc(NC(=O)CC[C@@H](O)C(=O)Nc3ccc(C#N)c(Cl)c3)ccc21` [Example 138, (2R)—N^1-(3-chloro-4-cyanophenyl)-N^5-(3-(cyclopropylmethyl)-1-ethyl-2,4-dioxo-1,2,3,4-tetrahydroquinazolin-6-yl)-2-hydroxypentanediamide] are 100%, 104% and 104%.
`CCn1c(=O)n(CC2CC2)c(=O)c2cc(NC(=O)CC[C@H](O)C(=O)Nc3ccc(C#N)c(Cl)c3)ccc21` [Example 139, (2S)—N^1-(3-chloro-4-cyanophenyl)-N^5-(3-(cyclopropylmethyl)-1-ethyl-2,4-dioxo-1,2,3,4-tetrahydroquinazolin-6-yl)-2-hydroxypentanediamide]: the inhibition at 1 µM in assay [3] and in assay [5] was 102% in each case. In addition, in assay [4] (Jurkat), the inhibition at 3 µM is 104%.
As to `CCn1c(=O)n(CC2CC2)c(=O)c2cc(NC(=O)[C@@H](O)CCC(=O)Nc3ccc(C#N)c(Cl)c3)ccc21` [Example 141, (2S)—N^5-(3-chloro-4-cyanophenyl)-N^1-(3-(cyclopropylmethyl)-1-ethyl-2,4-dioxo-1,2,3,4-tetrahydroquinazolin-6-yl)-2-hydroxypentanediamide], the inhibition at 1 µM in assay [3] and in assay [5] was 102% each time. Besides, in assay [4] (Jurkat), the inhibition at 3 µM amounted to 103%.
